Key:
[1] = tested on: 4 mm punch wound on the dorsal surface; experiment: Topical applications for wound healing in mice (4 mm punch wound, three dietary groups); type: in vivo, Balb/c mice; settings: 100 μM topical, in place of uracil; with or without CCM; four times over two weeks
Text: Balb/c mice were divided into three dietary groups (F=normal mouse chow; NF=nucleotide free mouse chow; and NFR=nucleotide free mouse chow supplemented with yeast RNA). Each group was fed before initiation of wounds. After 4 weeks of feeding, a 4 mm punch wound was created on the dorsal surface of each mouse, using a 4 mm biopsy punch. The wounds were coated with four different topical agents: (1) saline; (2) uracil ([…]); (3) saline+CCM; and (4) Uracil+CCM (CCM=crosslinked collagen mesh). CCM (“Collagen Permeable Membrane”) from Accurate Chemical & Scientific Corporation, Catalog No. YIC 152299. Four mm size circles were soaked with appropriate nucleotide or saline solution (4 mm punch wounds) and used to dress the wounds.
Twelve groups were formed from these combinations (n=3). Mice were continued on their respective diets. Wounds were observed visually and photographed at four different times during the period of two weeks. These studies were repeated using a 100 μM concentration of inosine in place of uracil as the topical agent.

[2] = tested on: 8 mm full thickness dorsal skin punch wound; experiment: Sirolimus dose response on healing of a full thickness skin punch wound; type: in vivo, Balb/c mice
Protocol: Sirolimus is an effective immunosuppressant that has been associated with delayed wound healing. On a full thickness skin murine model of immunosuppression and decreased wound healing, the Sirolimus dose that delayed wound healing was first determined.
Methods: For 2 weeks Balb/c mice were gavage-fed saline, 4 mg/kg, 8 mg/kg or 12 mg/kg Sirolimus (10 per group). After drug loading, an 8 mm in diameter full thickness dorsal skin punch wound was made in each mouse. Every second day digital pictures of the wound were taken and analyzed. After determining the effective Sirolimus dose that causes decreased wound healing and immunosuppression, 40 Balb/c mice were gavaged with 8 mg/kg of Sirolimus every other day. After establishing the punch wounds, the mono and dinucleotides were applied topically daily. The topical treatment was applied using the following formulations (10 mice per group): a mixture of mono and dinucleotides derived from RNA in 0.025%, 0.25% and 2.5% concentrations and one group with KY jelly as control. Every second day a digital picture was taken and wound size measured. P2Y2 receptor expression was qualitatively assessed using immunohistology and receptor specific antibodies. T-test was used to compare the groups.

SMILES	wound healing, wounds observed visually and photographed [1]	effect on wound healing ([2]; 4 mg/kg gavage for 2 weeks)	effect on wound healing ([2]; 8 mg/kg gavage for 2 weeks, day 4 and after)	effect on wound healing ([2]; 12 mg/kg gavage for 2 weeks, day 4 and after)
OC[C@H]1O[C@@H](n2cnc3c(O)ncnc32)[C@H](O)[C@@H]1O [inosine]	no significant differences from that which was seen with the uracil	–	–	–
CO[C@H]1C[C@@H]2CC[C@@H](C)[C@@](O)(O2)C(=O)C(=O)N2CCCC[C@H]2C(=O)O[C@H]([C@H](C)C[C@@H]2CC[C@@H](O)[C@H](OC)C2)CC(=O)[C@H](C)/C=C(\C)[C@@H](O)[C@@H](OC)C(=O)[C@H](C)C[C@H](C)/C=C/C=C/C=C/1C [Sirolimus]	–	no effect on wound healing	delayed wound healing in a significant manner	delayed wound healing in a significant manner

Reference: patent publication US20070254853A1, “Compositions and Methods for Promotion of Wound Healing” (BOARD OF REGENTS, THE UNIVERSITY OF TEXAS SYSTEM, priority 2006, published 2007)
